Results from publication PMC5853285, “Necessity of Bumped Kinase Inhibitor Gastrointestinal Exposure in Treating Cryptosporidium Infection” (The Journal of Infectious Diseases, 2017).
pEC50: −log10 of the molar value. Converted amounts (≈) assume the structure as drawn.

Legend:
Cryptosporidium parvum [1] = test: Neonatal mouse model of C. parvum infection; format: in vivo; design: concentration or dose not given beside the values
From the text: (§1) Information regarding the C. parvum oocysts, generation of BKIs, CpCDPK1 enzyme inhibition, C. parvum growth inhibition by BKIs, plasma protein binding, and neonatal mouse model of C. parvum infection has been described in detail elsewhere. Information on BKI solubility and permeability, Gastroplus modeling, the interferon (IFN) γ knockout (KO) mouse model, and measurement of BKI levels in the GI tract of mice is described in the Supplementary Material. All animal experiments were approved by the Institutional Animal Care and Use Committees at the participating universities (University of Washington, University of Georgia, and University of Arizona).

Cryptosporidium parvum [2] = test: C. parvum growth inhibition by BKIs in vitro; format: cell-based; conditions: read-out: BKI EC50 for Inhibition of C. parvum Proliferation
From the text: as §1

Cryptosporidium parvum [3] = test: IFN-γ KO adult mouse model of C. parvum infection (Nluc oocyst shedding); format: in vivo; conditions: IFN-γ KO mice, 6 mg/kg once daily oral for 5 days
From the text: The ability to predict in vivo efficacy with BKI ascending colon concentrations was further evaluated in an adult model of C. parvum infection. Female IFN-γ KO mice were infected with transgenic C. parvum strain UGA1 expressing nanoluciferase (Nluc), and the infection was allowed to proceed for 3–5 days. […] To account for daily growth of parasites over the course of the study, the observed RLUs in the vehicle-treated mice were used to simulate the growth of the parasite over the course of the experiment (Figure 4A). On each day of the study, the simulated parasite level was based on both the growth of the parasite and the predicted inhibition by BKI [[22–24]].
The efficacy of BKIs in an adult mouse model of C. parvum infection was tested as previously described. Briefly, all female IFN-γ KO mice (B6.129S7-Ifngtm1Ts/J, Jackson Laboratories), were infected by oral gavage (PO) with 10,000 Nluc expressing C. parvum oocysts in 100 μL DPBS for studies with 1534. For all other studies, mice were infected PO with 1,000 Nlucexpressing C. parvum oocysts. Vehicle control groups and BKI treated groups each contained at least three mice. […] The stool samples were checked for luminescence on the day of collection and RLU readings were standardized to fecal sample weights. […]

Plasma protein binding = format: in vitro ADME
From the text: as §1

[4] = Single oral dose pharmacokinetics of BKIs in mice (plasma); format: in vivo; conditions: mouse plasma
Experimental: Mouse oral PK studies were performed as previously described. Briefly, three female BALB/c mice (10 -12 weeks old) were used in each group. With the exception of 1556, each group of mice received an individual BKI at a dose of 10 mg/kg body weight by oral gavage in 200 μL 70% Tween 80/30% ethanol diluted in saline. The only difference for mice administered 1556 was that the group received a dose of 25 mg/kg. Blood samples were taken by tail bleeding into heparinized tubes at designated time points and centrifuged to obtain plasma. The samples were frozen at -20°C. The plasma samples were prepared by adding acetonitrile + 0.1% formic acid with an internal standard. Calibration curves were generated by spiking standards of each BKI into mouse serum and preparing the standards along with test samples. The PK calculations of Cmax and AUC were performed using Phoenix WinNonlin software (Certara, Princeton, NJ).

[5] = BKI aqueous solubility at pH 2 and 6.5; format: physicochemical; conditions: second of two values; measured at pH 2 and 6.5
Experimental: Briefly, 1 μL of 20 mM dimethyl sulfoxide (DMSO) stock was added to 199 μL of buffer. Samples were vortexed and allowed to incubate at 25 °C overnight. The next day, each sample was centrifuged at 13800 rpm for 40 minutes at 25 °C. The supernatant was collected and 100 μL of the supernatant was added to 100 μL acetonitrile. Solutions were analyzed by HPLC/UV and were quantified based on a five-point calibration curve for each analyte.

Cryptosporidium = test system: Cryptosporidium; design: method as in PMID 12423984; conditions: cited from earlier work

| SMILES | pEC50 (Cryptosporidium parvum [2]) | Plasma Protein Binding (Plasma protein binding) | AUC ([4]; single oral dose 10 mg/kg) | Cmax ([4]; single oral dose 10 mg/kg) | Solubility (second value) [5] | AUC ([4]; single oral dose 25 mg/kg) | Cmax ([4]; single oral dose 25 mg/kg) | Reduction in Neonatal Mouse C. parvum Infection (Cryptosporidium parvum [1]) | in vivo efficacy (oocyst shedding, RLU) (Cryptosporidium parvum [3]) | efficacy (Cryptosporidium; human immunodeficiency virus–infected individuals) | response rate (Cryptosporidium; malnourished children with cryptosporidiosis) |
| --- | --- | --- | --- | --- | --- | --- | --- | --- | --- | --- | --- |
| CC(C)Cn1nc(-c2ccc3cc(OC4CC4)ccc3c2)c2c(N)ncnc21 [BKI 1534] | 5.66 | 99% | 58 µmol·min/L | 200 nM | 2 µM (≈ 0.747 µg/mL) |  |  | 61% | lack of BKI efficacy |  |  |
| CCOc1ccc2cc(-c3nn(CC4CCN(C)CC4)c4ncnc(N)c34)ccc2c1 [BKI 1294] | 5.57 | 84% | 430 µmol·min/L | 800 nM |  |  |  | 56% |  |  |  |
| CC(=O)Oc1ccccc1C(=O)Nc1ncc([N+](=O)[O-])s1 [nitazoxanide] |  |  |  |  |  |  |  |  |  | no efficacy | 30% |
| CC(C)(O)Cn1cc(-c2ccc3nc(OC4CC4)ccc3c2)c2c(N)ncnc21 [BKI 1649] | 5.64 | 90% | 6416 µmol·min/L | 4900 nM | 83 µM (≈ 32.3 µg/mL) |  |  | 56% |  |  |  |

Further lines, with some results ahead:

| pEC50 (Cryptosporidium parvum [2]) | Plasma Protein Binding (Plasma protein binding) | AUC ([4]; single oral dose 10 mg/kg) | Cmax ([4]; single oral dose 10 mg/kg) | Solubility (second value) [5] | AUC ([4]; single oral dose 25 mg/kg) | Cmax ([4]; single oral dose 25 mg/kg) | SMILES | Reduction in Neonatal Mouse C. parvum Infection (Cryptosporidium parvum [1]) | in vivo efficacy (oocyst shedding, RLU) (Cryptosporidium parvum [3]) | efficacy (Cryptosporidium; human immunodeficiency virus–infected individuals) | response rate (Cryptosporidium; malnourished children with cryptosporidiosis) |
| --- | --- | --- | --- | --- | --- | --- | --- | --- | --- | --- | --- |
| 5.49 | 55% | 2208 µmol·min/L | 6500 nM |  |  |  | CCOc1ccc2cc(-c3nn(CC4CCNCC4)c4ncnc(N)c34)ccc2n1 [BKI 1318] | 65% |  |  |  |
| 5.49 | 86% |  |  | 7 µM (≈ 2.62 µg/mL) | 2082 µmol·min/L | 7000 nM | CC(C)Cn1nc(-c2ccc3nc(OC4CC4)ccc3c2)c2c(N)ncnc21 [BKI 1556] | 61% |  |  |  |
| 5.26 | 84% | 67 µmol·min/L | 900 nM | 17 µM (≈ 7.08 µg/mL) |  |  | Nc1ncnc2c1c(-c1ccc3nc(OC4CC4)ccc3c1)nn2CC1CCOCC1 [BKI 1557] | 33% |  |  |  |
| 5.64 | 37% |  | 300 nM |  |  |  | CCOc1ccc2cc(-c3nn(CC4CCN(C)CC4)c4ncnc(N)c34)ccc2n1 [BKI 1369] | 70% |  |  |  |
